This is an account of results in US11053218B2, “3-(1-oxoisoindolin-2-yl)piperidine-2,6-dione derivatives and uses thereof” (Novartis AG, priority 2017, dated 2021).

What all share (type): cell-based
For assay [1], the target named is IKZF2 (Homo sapiens, UniProt Q96SW2+Q9UKS7). The assay can be described thus: Prolabel quantification of IKZF2 protein levels in 293GT cells. The conditions noted are these: 293GT cells; for inhibition at 10 µM: 24 h, read-out: IKZF2 % protein reduction at 10 μM, 24 h; for DC50: Prolabel assay, read-out: IKZF2 EC50.
In assay [2] the target is IKZF1 (Homo sapiens, UniProt Q13422+Q96SW2). In words: Prolabel quantification of IKZF1 protein levels in 293GT cells. The conditions noted are these: Prolabel assay, read-out: IKZF1 EC50.
Assay [3] addresses GSPT1 (Homo sapiens, UniProt P15170+Q96SW2). In words: Prolabel quantification of GSPT1 protein levels in 293GT cells. The conditions noted are these: Prolabel assay, read-out: GSPT1 EC50. The procedure:
The Prolabel system from DiscoverX was used to develop high-throughput and quantitative assays to measure changes in IKZF1, IKZF2 and GSPT1 protein levels in response to compounds. The prolabel tag was derived from the alpha fragment of beta galactosidase and has the following protein sequence: mssnslavvlqrrdwenpgvtqlnrlaahppfaswrnseeartdrpsqqlrslnge. The complementary fragment of beta-galactosidase (from DiscoverX), is added to the prolabel tag to form an active beta galactosidase enzyme whose activity can be precisely measured. In this way, the levels of a fusion protein with the prolabel tag can be quantified in cell lysates.
Lentiviral vectors, based on the Invitrogen pLenti6.2/V5 DEST backbone, were constructed that placed the prolabel tag upstream of IKZF1, IKZF2 or GSPT1 and expressed the fusion protein from a CMV promoter.
To ensure moderate and consistent expression of the prolabel fusion proteins across all cells in the population, stable cell lines were constructed from cells expressing a single copy of the construct. Lentivirus packaged with the constructs was made using the Virapower kit from Invitrogen.
The levels of prolabel tagged fusion proteins in compound treated cell lines were measured as follows:
Day 1, Cells were diluted to 1.0×10^6 cells/ml in normal growth medium. 17.5 μL of cells were plated in each well of a solid white 384 well plate. Plates were incubated overnight in a 37° C. tissue culture incubator.
Day 2, Serial dilutions of compounds were made in 384 well plates from 10 mM stocks. 15 μL of DMSO was added to each well of a 384 well plate. In the first column 15 μL of stock compound was added. The solution was mixed and 15 μL was transferred to the next column. This was repeated until 20 two-fold dilutions were prepared. 2.5 μL of diluted compounds were transferred into 60 μL of cell culture medium in another 384 well plate, and mixed well. 2.5 μL of this mixture was added to the plated cells. The final DMSO concentration was 0.5% and the highest concentration of compound was 50 μM. Plates were incubated overnight (e.g., about 14 h, 18 h, or 24 h) in a 37° C. tissue culture incubator.
Day 3, Plates were removed from the incubator and allowed to equilibrate at rt for 30 minutes. Prolabel substrate (DiscoverX PathHunter Prolabel Detection Kit, User manual: 93-0180) was added as described by the manufacturers protocols. Plates were incubated at rt for three hours and luminescence was read using an Envision reader (Perkin Elmer) Data was analyzed and visualized using the Spotfire software package.

The structures appear in SMILES notation. A value given as a limit tells only on which side of the number the result lay.

IKZF1, sequence (Q13422 whole entry): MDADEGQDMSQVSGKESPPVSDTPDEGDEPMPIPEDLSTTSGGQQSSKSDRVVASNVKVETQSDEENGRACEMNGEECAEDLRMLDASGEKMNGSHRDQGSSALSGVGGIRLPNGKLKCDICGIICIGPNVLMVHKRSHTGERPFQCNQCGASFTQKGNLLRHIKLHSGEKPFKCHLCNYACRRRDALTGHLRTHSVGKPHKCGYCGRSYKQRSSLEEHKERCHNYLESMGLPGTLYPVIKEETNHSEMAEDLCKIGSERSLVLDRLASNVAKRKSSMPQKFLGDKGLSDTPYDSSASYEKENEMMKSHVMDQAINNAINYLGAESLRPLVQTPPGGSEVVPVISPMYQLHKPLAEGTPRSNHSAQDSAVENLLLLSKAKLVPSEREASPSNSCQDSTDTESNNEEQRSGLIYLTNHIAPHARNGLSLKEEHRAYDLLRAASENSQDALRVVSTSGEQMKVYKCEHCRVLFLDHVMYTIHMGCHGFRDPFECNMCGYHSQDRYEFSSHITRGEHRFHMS
IKZF1, sequence (Q96SW2 whole entry): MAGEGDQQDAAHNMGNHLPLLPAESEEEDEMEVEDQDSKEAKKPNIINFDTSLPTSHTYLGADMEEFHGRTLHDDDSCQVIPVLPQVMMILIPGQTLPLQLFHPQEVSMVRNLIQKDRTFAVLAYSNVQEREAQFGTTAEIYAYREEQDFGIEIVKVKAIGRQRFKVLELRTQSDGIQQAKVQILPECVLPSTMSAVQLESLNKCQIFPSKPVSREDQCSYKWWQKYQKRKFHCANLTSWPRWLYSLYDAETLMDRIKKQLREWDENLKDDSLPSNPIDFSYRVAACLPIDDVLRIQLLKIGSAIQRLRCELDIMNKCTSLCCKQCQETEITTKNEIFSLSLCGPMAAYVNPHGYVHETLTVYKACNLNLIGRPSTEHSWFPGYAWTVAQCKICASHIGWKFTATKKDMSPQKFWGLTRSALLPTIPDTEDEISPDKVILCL
IKZF1, sequence (Q16531 whole entry partner): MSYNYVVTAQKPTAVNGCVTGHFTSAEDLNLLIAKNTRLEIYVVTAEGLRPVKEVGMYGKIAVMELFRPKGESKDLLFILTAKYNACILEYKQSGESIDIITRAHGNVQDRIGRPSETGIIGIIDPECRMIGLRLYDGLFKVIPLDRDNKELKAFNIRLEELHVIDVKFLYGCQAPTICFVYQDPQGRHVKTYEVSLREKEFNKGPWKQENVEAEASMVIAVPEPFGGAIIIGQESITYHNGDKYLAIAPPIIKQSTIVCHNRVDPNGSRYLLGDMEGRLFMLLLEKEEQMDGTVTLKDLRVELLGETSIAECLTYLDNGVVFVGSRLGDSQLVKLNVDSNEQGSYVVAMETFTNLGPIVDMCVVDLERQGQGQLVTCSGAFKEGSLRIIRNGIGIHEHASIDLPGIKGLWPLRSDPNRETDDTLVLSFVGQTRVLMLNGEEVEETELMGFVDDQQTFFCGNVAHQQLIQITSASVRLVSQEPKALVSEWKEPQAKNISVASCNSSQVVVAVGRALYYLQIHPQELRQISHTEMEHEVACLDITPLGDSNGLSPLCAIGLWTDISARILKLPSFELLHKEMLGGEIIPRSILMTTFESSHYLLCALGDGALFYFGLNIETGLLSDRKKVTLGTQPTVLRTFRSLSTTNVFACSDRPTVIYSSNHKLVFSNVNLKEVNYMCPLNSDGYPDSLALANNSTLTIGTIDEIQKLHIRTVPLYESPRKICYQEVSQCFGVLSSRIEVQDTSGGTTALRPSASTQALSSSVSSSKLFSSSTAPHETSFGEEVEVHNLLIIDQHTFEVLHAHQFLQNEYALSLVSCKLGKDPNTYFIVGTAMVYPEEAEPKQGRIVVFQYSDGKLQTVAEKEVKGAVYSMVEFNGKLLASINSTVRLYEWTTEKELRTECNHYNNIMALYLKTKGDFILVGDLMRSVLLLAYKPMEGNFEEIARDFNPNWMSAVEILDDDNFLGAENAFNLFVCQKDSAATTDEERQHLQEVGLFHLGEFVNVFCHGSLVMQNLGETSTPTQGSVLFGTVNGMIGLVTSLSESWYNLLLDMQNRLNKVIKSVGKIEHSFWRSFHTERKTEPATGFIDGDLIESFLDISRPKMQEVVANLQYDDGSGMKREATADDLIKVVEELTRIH
IKZF2, sequence (Q9UKS7 whole entry): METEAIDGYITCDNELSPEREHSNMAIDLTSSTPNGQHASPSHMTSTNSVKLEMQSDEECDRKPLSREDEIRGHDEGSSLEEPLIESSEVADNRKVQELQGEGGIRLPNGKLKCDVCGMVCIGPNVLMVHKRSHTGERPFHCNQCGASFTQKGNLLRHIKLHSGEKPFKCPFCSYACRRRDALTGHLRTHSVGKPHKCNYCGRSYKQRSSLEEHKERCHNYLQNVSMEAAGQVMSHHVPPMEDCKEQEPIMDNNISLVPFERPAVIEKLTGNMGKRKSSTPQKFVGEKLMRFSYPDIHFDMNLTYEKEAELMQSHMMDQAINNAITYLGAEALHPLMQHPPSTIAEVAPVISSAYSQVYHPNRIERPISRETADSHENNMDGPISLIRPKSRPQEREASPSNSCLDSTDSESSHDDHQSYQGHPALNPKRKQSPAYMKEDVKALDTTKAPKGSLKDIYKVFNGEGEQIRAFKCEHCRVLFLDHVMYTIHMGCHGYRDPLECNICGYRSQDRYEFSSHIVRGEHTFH
IKZF2, sequence (Q96SW2 whole entry): as the sequence (Q96SW2 whole entry) above
IKZF2, sequence (Q16531 whole entry partner): as the sequence (Q16531 whole entry partner) above
GSPT1, sequence (P15170 whole entry, the tested form may be a part): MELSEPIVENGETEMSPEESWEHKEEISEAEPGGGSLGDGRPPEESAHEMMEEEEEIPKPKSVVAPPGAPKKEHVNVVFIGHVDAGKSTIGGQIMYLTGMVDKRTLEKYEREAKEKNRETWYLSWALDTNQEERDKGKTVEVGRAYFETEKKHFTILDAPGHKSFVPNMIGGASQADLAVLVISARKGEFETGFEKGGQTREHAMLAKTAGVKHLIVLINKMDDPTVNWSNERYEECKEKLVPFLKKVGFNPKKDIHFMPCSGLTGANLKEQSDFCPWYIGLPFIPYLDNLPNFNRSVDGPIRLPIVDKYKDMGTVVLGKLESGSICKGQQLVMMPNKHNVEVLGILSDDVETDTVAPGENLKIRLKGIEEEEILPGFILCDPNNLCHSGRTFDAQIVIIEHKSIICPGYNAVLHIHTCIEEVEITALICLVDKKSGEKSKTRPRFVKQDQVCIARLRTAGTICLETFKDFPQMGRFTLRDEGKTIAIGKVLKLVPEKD
GSPT1, sequence (Q96SW2 whole entry, the tested form may be a part): as the sequence (Q96SW2 whole entry) above
GSPT1, sequence (Q16531 whole entry partner, the tested form may be a part): as the sequence (Q16531 whole entry partner) above

Regarding `CC(=O)Nc1ccc(CN2CCC(c3ccc4c(c3)CN(C3CCC(=O)NC3=O)C4=O)CC2)cc1` (stereo not shown) [Compound I-86, N-(4-((4-(2-(2,6-dioxopiperidin-3-yl)-1-oxoisoindolin-5-yl)piperidin-1-yl)methyl)phenyl)acetamide], in assay [1], the inhibition at 10 µM turned out to be 75%. For the same compound, the DC50 is 29 nM in assay [1], above 30000 nM in assay [2] and above 30000 nM in assay [3].
Regarding `O=C1CCC(N2Cc3cc(C4CCN(Cc5ccc(S(=O)(=O)C(F)F)cc5)CC4)ccc3C2=O)C(=O)N1` (stereo not shown) [Compound I-252, 3-(5-(1-(4-((difluoromethyl)sulfonyl)benzyl)piperidin-4-yl)-1-oxoisoindolin-2-yl)piperidine-2,6-dione], the inhibition at 10 µM in assay [1] was found to be 75%. Besides, the DC50 in assay [1] is 30 nM; in assay [2] it was above 30000 nM.
For `O=C1CCC(N2Cc3cc(C4CCN(C(c5ccccc5)C(F)F)CC4)ccc3C2=O)C(=O)N1` (stereo not shown) [Compound I-209, 3-(5-(1-(2,2-difluoro-1-phenylethyl)piperidin-4-yl)-1-oxoisoindolin-2-yl)piperidine-2,6-dione] the same measures were 40%, 140 nM and above 30000 nM.
On the same counts, the results for `O=C1CCC(N2Cc3cc(C4CCN(Cc5cc[nH]c5)CC4)ccc3C2=O)C(=O)N1` (stereo not shown) [Compound I-119, 3-(5-(1-((1H-pyrrol-3-yl)methyl)piperidin-4-yl)-1-oxoisoindolin-2-yl)piperidine-2,6-dione] are 65%, 140 nM and above 30000 nM.
With `O=C1CCC(N2Cc3cc(C4CCN(Cc5cnn(-c6ccccc6)c5)CC4)ccc3C2=O)C(=O)N1` (stereo not shown) [Compound I-288, 3-(1-oxo-5-(1-((1-phenyl-1H-pyrazol-4-yl)methyl)piperidin-4-yl)isoindolin-2-yl)piperidine-2,6-dione], in assay [1], the inhibition at 10 µM is 80% and the DC50 worked out at 12 nM. Also, the DC50 in assay [2] was above 30000 nM.
On the same counts, the results for `O=C1CCC(N2Cc3cc(C4CCN(Cc5cccc6ncnn56)CC4)ccc3C2=O)C(=O)N1` (stereo not shown) [Compound I-127, 3-(5-(1-([1,2,4]triazolo[1,5-a]pyridin-5-ylmethyl)piperidin-4-yl)-1-oxoisoindolin-2-yl)piperidine-2,6-dione] are 45%, 190 nM and above 30000 nM.
On the same counts, the results for `O=C1CCC(N2Cc3cc(C4CCN(Cc5c(F)cccc5F)CC4)ccc3C2=O)C(=O)N1` (stereo not shown) [Compound I-24, 3-(5-(1-(2,6-difluorobenzyl)piperidin-4-yl)-1-oxoisoindolin-2-yl)piperidine-2,6-dione] are 60%, 39 nM and above 30000 nM.
For `Nc1ncc(CN2CCC(c3ccc4c(c3)CN(C3CCC(=O)NC3=O)C4=O)CC2)cn1` (stereo not shown) [Compound I-122, 3-(5-(1((2-aminopyrimidin-5-yl)methyl)piperidin-4-yl)-1-oxoisoindolin-2-yl)piperidine-2,6-dione] the same measures were 70%, 76 nM and above 30000 nM.
With `O=C1CCC(N2Cc3cc(C4CCN(Cc5c[nH]nc5-c5cccnc5)CC4)ccc3C2=O)C(=O)N1` (stereo not shown) [Compound I-151, 3-(1-oxo-5-(1-((3-(pyridin-3-yl)-1H-pyrazol-4-yl)methyl)piperidin-4-yl)isoindolin-2-yl)piperidine-2,6-dione], in assay [1], the inhibition at 10 µM was 60% and the DC50 is 95 nM. In addition, in assay [2], the DC50 was above 30000 nM.
For `Cn1ncc(CN2CCC(c3ccc4c(c3)CN(C3CCC(=O)NC3=O)C4=O)CC2)c1N` (stereo not shown) [Compound I-124, 3-(5-(1-((5-amino-1-methyl-1H-pyrazol-4-yl)methyl)piperidin-4-yl)-1-oxoisoindolin-2-yl)piperidine-2,6-dione] the same measures were 40%, 9800 nM and above 30000 nM.
For `O=C1CCC(N2Cc3cc(C4=CCN(Cc5ccccc5)C4)ccc3C2=O)C(=O)N1` (stereo not shown) [Compound I-191, 3-(5-(1-benzyl-2,5-dihydro-1H-pyrrol-3-yl)-1-oxoisoindolin-2-yl)piperidine-2,6-dione] the same measures were 10%, 4200 nM and above 30000 nM.
For `O=C1CCC(N2Cc3cc(C4CCN(Cc5ccon5)CC4)ccc3C2=O)C(=O)N1` (stereo not shown) [Compound I-246, 3-(5-(1-(isoxazol-3-ylmethyl)piperidin-4-yl)-1-oxoisoindolin-2-yl)piperidine-2,6-dione] the same measures were 40%, 12 nM and above 50000 nM.
With `NC(=O)c1nc(CN2CCC(c3ccc4c(c3)CN(C3CCC(=O)NC3=O)C4=O)CC2)no1` (stereo not shown) [Compound I-235, 3-((4-(2-(2,6-dioxopiperidin-3-yl)-1-oxoisoindolin-5-yl)piperidin-1-yl)methyl)-1,2,4-oxadiazole-5-carboxamide], the inhibition at 10 µM in assay [1] was 40%. Also, the values for the DC50 in assay [1] and in assay [2] were 2440 nM and above 30000 nM, respectively.
`O=C1CCC(N2Cc3cc(C4CCN(Cc5ccccc5Cl)CC4)ccc3C2=O)C(=O)N1` (stereo not shown) [Compound I-18, 3-(5-(1-(2-chlorobenzyl)piperidin-4-yl)-1-oxoisoindolin-2-yl)piperidine-2,6-dione]: in assay [1], the inhibition at 10 µM was determined as 65% and the DC50 came out at 19 nM. In assay [2], the DC50 was above 30000 nM.
As for `O=C1CCC(N2Cc3cc(C4CCN(Cc5ccc(OCc6ccccn6)cc5)CC4)ccc3C2=O)C(=O)N1` (stereo not shown) [Compound I-255, 3-(1-oxo-5-(1-(4-(pyridin-2-ylmethoxy)benzyl)piperidin-4-yl)isoindolin-2-yl)piperidine-2,6-dione], in assay [1], the inhibition at 10 µM was found to be 60% and the DC50 came out at 49 nM. In addition, in assay [2], the DC50 is above 30000 nM.
`O=C1CCC(N2Cc3cc(C4CCN([C@@H](CO)c5ccccc5)CC4)ccc3C2=O)C(=O)N1` (single isomer, unassigned) [Compound I-202]: in assay [1], the inhibition at 10 µM was determined as 40% and the DC50 worked out at 590 nM. Further, the DC50 in assay [2] is above 30000 nM.
Regarding `O=C1CCC(N2Cc3cc(C4CCN(Cc5ccc(C(F)(F)F)cn5)CC4)ccc3C2=O)C(=O)N1` (stereo not shown) [Compound I-78, 3-(1-oxo-5-(1-((5-(trifluoromethyl)pyridin-2-yl)methyl)piperidin-4-yl)isoindolin-2-yl)piperidine-2,6-dione], in assay [1], the inhibition at 10 µM is 40% and the DC50 stood at 210 nM. Moreover, the DC50 in assay [2] is above 30000 nM.
On the same counts, the results for `O=C1CCC(N2Cc3cc(C4CCN(Cc5ccccn5)CC4)ccc3C2=O)C(=O)N1` (stereo not shown) [Compound I-58, 3-(1-oxo-5-(1-(pyridin-2-ylmethyl)piperidin-4-yl)isoindolin-2-yl)piperidine-2,6-dione] are 60%, 53 nM and above 30000 nM.
On the same counts, the results for `O=C1CCC(N2Cc3cc(C4CCN(Cc5cnc(Cl)s5)CC4)ccc3C2=O)C(=O)N1` (stereo not shown) [Compound I-10, 3-(5-(1-((2-chlorothiazol-5-yl)methyl)piperidin-4-yl)-1-oxoisoindolin-2-yl)piperidine-2,6-dione] are 60%, 85 nM and above 30000 nM.
Consider `CCn1ccc(CN2CCC(c3ccc4c(c3)CN(C3CCC(=O)NC3=O)C4=O)CC2)n1` (stereo not shown) [Compound I-121, 3-(5-(1-((1-ethyl-1H-pyrazol-3-yl)methyl)piperidin-4-yl)-1-oxoisoindolin-2-yl)piperidine-2,6-dione], for which, in assay [1], the inhibition at 10 µM worked out at 60% and the DC50 worked out at 62 nM. Further, in assay [2], the DC50 is above 30000 nM.
On the same counts, the results for `Cc1ccc2nc(CN3CCC(c4ccc5c(c4)CN(C4CCC(=O)NC4=O)C5=O)CC3)cc(=O)n2c1` (stereo not shown) [Compound I-221, 3-(5-(1-((7-methyl-4-oxo-4H-pyrido[1,2-a]pyrimidin-2-yl)methyl)piperidin-4-yl)-1-oxoisoindolin-2-yl)piperidine-2,6-dione] are 30%, 36 nM and above 50000 nM.
